Laboratory results reported in patent US5637697A, “1,5-benzodiazepine derivatives and their use in medicine” (Glaxo SpA, priority 1992, dated 1997).

Experiments:
mice and rats [1] = test: oral tolerability / untoward effects in mice and rats; format: in vivo; details: given orally to mice and rats at doses at which the compound exhibits anxiolytic activity
Excerpt: (§1) The compounds of the invention are essentially non-toxic and therapeutically useful doses.

mice and rats [2] = test: anxiolytic activity, oral, mice and rats; format: in vivo; details: given orally to mice and rats
Excerpt: For example in mice in the black-white box test and in the rat social interaction model.
as §1

CCK-B receptor = molecular target: T1, CCK-B receptor (Cavia porcellus, UniProt H0VZC5); test: CCK-B receptor binding (guinea pig cortex assay); details: read-out: pKi CCK-B (converted)
T1 construct: CCK-B receptor (guinea pig cortex assay); from tissue; host or cells: guinea pig cortex
Description: The greater affinity of the compounds of the invention for the CCK-B receptor over the CCK-A receptor has also been established using the CCK, receptor binding assays described by G Dal Fornos et al., J. Pharmcol. Exp & Ther. 261, 1056-1063, 1992.
The binding affinity of the compounds of the invention for the CCK-A receptor (Pancreas Assay) and CCK-B receptor (guinea pig cortex assay) was determined using the procedure of G Dal Forno et al J. Pharmacol. Exp & Ther. 261 - 1056-1063. The pKi values determined with respresentative compounds of invention were as follows: […]

T1 sequence (H0VZC5 entry or part of it): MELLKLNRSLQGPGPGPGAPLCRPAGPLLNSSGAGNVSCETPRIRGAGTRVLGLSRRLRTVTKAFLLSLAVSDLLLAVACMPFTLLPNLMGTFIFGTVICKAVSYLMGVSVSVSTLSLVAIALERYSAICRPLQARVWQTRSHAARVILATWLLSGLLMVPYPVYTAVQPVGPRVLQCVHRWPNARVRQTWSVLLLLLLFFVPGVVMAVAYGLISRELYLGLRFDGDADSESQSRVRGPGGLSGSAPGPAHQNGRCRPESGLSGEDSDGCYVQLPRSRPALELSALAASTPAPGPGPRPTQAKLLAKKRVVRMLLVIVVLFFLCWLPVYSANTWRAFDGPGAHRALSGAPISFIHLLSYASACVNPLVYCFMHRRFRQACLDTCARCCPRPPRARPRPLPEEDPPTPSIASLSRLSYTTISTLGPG

Compound	untoward effects (mice and rats [1])	anxiolytic activity (mice and rats [2])	Ki (CCK-B receptor) [nM]
O=C(Nc1ccccc1)NC1C(=O)N(CC23CC4CC(CC(C4)C2)C3)c2ccccc2N(c2ccccc2)C1=O (single isomer, unassigned; (+)) [Example 45, (+)-N-[1-(Adamantanmethyl)-2,4-dioxo-5-phenyl-2,3,4,5-tetrahydro-1H-1,5-benzodiazepin-3-yl]-N'-phenylurea]	no untoward effects were obserbved	exhibits anxiolytic activity	
O=C(Nc1ccccc1)NC1C(=O)N(CC2CC3C=CC2C3)c2ccccc2N(c2ccccc2)C1=O (stereo not drawn) [Example 31, N-[1-(Bicyclo[2.2.1]-5-heptene-2-ylmethyl)-2,4-dioxo-5-phenyl-2,3,4,5-tetrahydro-1H-1,5-benzodiazepin-3-yl]-N'-phenylurea]			1.2
